Experiment [1] concerns primary isolate HIV-1J176 in purified CD4+ T lymphocytes.
Method: Viral stocks were titrated on activated human CD4^+ T cells.
PBMCs were isolated from healthy blood donors by standard Ficoll-HyPaque (Pharmacia, Uppsala, Sweden) density gradient centrifugation from concentrated leukocytes of healthy blood donors and stimulated with 5 µg/ml PHA (Sigma, St. Louis, MO) in complete RPMI medium supplemented with 10% FBS and 50 U/ml recombinant IL-2 (Proleukin; Chiron Corporation, Emeryville, CA) (RPMI-10). After 3 days in culture, CD4^+ T cell population was enriched by negative immunomagnetic selection using Dynabeads M-450 (Invitrogen Carlsbad, CA) coated with monoclonal antibodies to CD8, CD14, CD19 and CD56 (Sigma, St. Louis, MO) according to the manufacturer’s protocol. Infection was carried out by spinoculation for 1.5 hours as previously described [32] with minor modifications. […]
The HIV-1 p24 Ag concentrations in the culture supernatants were determined by enzyme-linked immunosorbent assay (ELISA) at days 4 and 6 post-infection as previously described [68]. […] Bound p24 Ag was then detected using an alkaline phosphatase–conjugated anti-p24 monoclonal antibody (BC 1071-AP; Aalto Bio Reagents) and the AMPAK ELISA amplification system (DAKO A/S, Glostrup, Denmark).
The subject of the next experiment is X4 HIV-1 envelopes. Particulars: read-out: mean IC50, envelope-mediated fusion, PM1 effector cells, NIH-3T3 CD4/CXCR4 target cells, 2 h at 37°C, medium without FCS, β-galactosidase, 3 experiments.
The subject of another experiment is HIV-1 envelope. Particulars: envelope not stated.
Experiment [2] addresses recombinant soluble CD4 (sCD4) (Homo sapiens, UniProt P01730). Nature of the experiment: biochemical.
Method: (§1) Flat-bottom, 96-well MaxiSorp plates (NUNC, Roskilde, Denmark) were coated with recombinant sCD4 (5 µg/well) or HIV-1BaL gp120 (2 µg/well) in phosphate-buffered saline (PBS) for 18 hrs at 4°C. Bovine serum albumin (BSA) 3% was used for blocking the plates. Antibodies were added in 100 µl PBS+0.05%BSA and incubated for 1 hr at 37°C, after which the plate was washed and incubated for an additional hour at room temperature with the secondary antibody. Peroxidase-conjugated, affinity-purified goat-anti-mouse IgG or goat-anti-human IgG (Dako, Glostrup, Denmark) were used as secondary antibodies. […] The specific signal was calculated by subtracting background values obtained from replicate wells containing all the reagents except the specific ligand for each assay. Binding of mAbs 17b and 48d, directed to CD4-induced epitopes, was performed after preincubation of immobilized gp120 with sCD4 (2 µg/well) in PBS for 20 min at 37°C [65].
The target of another experiment is gp120/CD4 (Homo sapiens, UniProt P01730). In words: biochemical.
Another experiment concerns SHIV. Conditions: macaques; ref [61]; cited from earlier work. The text has this:
Moreover, HD5 may share the mechanism of action of cyanovirin-N, a lectin-like protein that binds to mannose moieties in gp120 and of mAb IgG1b12, with which it competes for the same binding site on CD4 receptor. Both of these virus-targeting entry-inhibitors have been reported to protect macaques from vaginal SHIV ...

The target of experiment [3] is recombinant HIV-1 gp120 from isolate SF162 (HIV-1 isolate SF162). Nature of the experiment: ELISA; competition: increasing HD5 against mAb IgG1b12 (5 µg/mL) for binding to plastic-immobilised recombinant gp120; PBS + 0.05% BSA, 1 hr at 37°C.
For experiment [4], the target named is recombinant human soluble CD4 (human). Nature of the experiment: ELISA; competition: increasing HD5 against anti-CD4 mAb (Leu3a; OKT4) for binding to plastic-immobilised sCD4 (coated at 5 µg/mL); HD5 added before the mAb and kept in the wells. In general terms: ELISA stands for enzyme-linked immunosorbent assay.
In experiment [5] the target is recombinant HIV-1 gp120 from isolate BaL (HIV-1 isolate BaL). Nature of the experiment: ELISA; competition: increasing HD5 against the binding of sCD4 and gp120; the text has gp120 on plastic and sCD4 in solution, the legend has sCD4 coated at 5 µg/mL and gp120BaL in solution; HD5 added first and kept in the wells.

Like-named read-outs stand apart in the source and are kept apart here. Where a SMILES comes first, the peptide text is derived from it. Bridges are numbered along the chain shown (N, C = ends).

Method for gp120/CD4: as §1

As for `CC[C@H](C)[C@@H]1NC(=O)[C@H](CCC(=O)O)NC(=O)[C@@H]2CSSC[C@@H]3NC(=O)[C@H](Cc4ccc(O)cc4)NC(=O)[C@@H](NC(=O)[C@@H](NC(=O)[C@H](C)N)[C@@H](C)O)CSSC[C@@H](C(=O)N[C@@H](CCCNC(=N)N)C(=O)O)NC(=O)[C@H](CSSC[C@H](NC(=O)[C@H](CCCNC(=N)N)NC(=O)CNC(=O)[C@H]([C@@H](C)O)NC(=O)[C@H](CCCNC(=N)N)NC3=O)C(=O)N[C@@H](C)C(=O)N[C@@H]([C@@H](C)O)C(=O)N[C@@H](CCCNC(=N)N)C(=O)N[C@@H](CCC(=O)O)C(=O)N[C@@H](CO)C(=O)N[C@@H](CC(C)C)C(=O)N[C@@H](CO)C(=O)NCC(=O)N[C@@H](C(C)C)C(=O)N2)NC(=O)[C@H](CC(C)C)NC(=O)[C@H](CCCNC(=N)N)NC(=O)[C@H](Cc2ccc(O)cc2)NC(=O)[C@H](CC(C)C)NC(=O)[C@H](CCCNC(=N)N)NC(=O)CNC(=O)[C@H](CO)NC1=O` [HD5] (H-ATCYCRTGRCATRESLSGVCEISGRLYRLCCR-OH; disulfide 3-31, 5-20, 10-30), the IC50 came to 60 nM in experiment [1] (primary isolate 1J176 in purified CD4+ T lymphocytes, 1 h); 400 nM in experiment [1] (read-out: half-maximal inhibitory concentration (IC50), HIV-1 replication, HIV-1J176, no serum (RPMI-0.3-ITS: 0.3% human AB serum, ITS, rIL-2 50 U/ml), virions pre-incubated with HD5 1 h at 37°C, spinoculation 1.5 h, p24 ELISA day 6, mean of 3 experiments in triplicate); 2770 ± 380 nM in the experiment with X4 HIV-1 envelopes; 56000 nM in the experiment on HIV-1 envelope (read-out: IC50, fusion with FBS, with FBS (2.5% vol/vol)); 2300 nM with HIV-1 envelope (read-out: IC50, fusion without FBS, without FBS); 1800 nM in [2]. In addition, the IC50 at gp120/CD4 is 900 nM.
Turning to cyanovirin-N, the “protection from vaginal SHIV-challenge” value with SHIV is listed as “protect macaques from vaginal SHIV-challenge”.
In the case of ATCYCRTGRCATRESLSGVCEISGRLYRLCCR [human α-defensin-5], the IC50 in experiment [3] was determined as 6500 nM; in experiment [4], 1800 nM; in [5] it was 900 nM.

Values taken from publication PMC3459904, “Inhibition of HIV-1 Infection by Human α-Defensin-5, a Natural Antimicrobial Peptide Expressed in the Genital and Intestinal Mucosae” (PLoS ONE, 2012).
